In BigSolDB 2.1:

O=C(O)c1cccc(C(=O)O)c1
solubility (mole fraction)
Settings	283.15 K	288.15 K	293.15 K	298.15 K	303.15 K	308.15 K	313.15 K	318.15 K	323.15 K
in ethanol	0.00328	0.00369	0.00406	0.00451	0.005	0.00559	0.00616	0.00682	0.00752
in methanol	0.00269	0.00304	0.00342	0.00376	0.00422	0.00473	0.00527	0.0059	0.00654
in n-propanol	0.00287	0.0032	0.00362	0.00415	0.00472	0.00533	0.00603	0.00689	0.00774
